Results from ChEMBL document CHEMBL4316589, “Attachment of a 5-nitrofuroyl moiety to spirocyclic piperidines produces non-toxic nitrofurans that are efficacious in vitro against multidrug-resistant Mycobacterium tuberculosis” (Eur J Med Chem, 2019).
Values after ≈ are worked out from the molar mass of the structure shown.

Tests used:
[1] = tested on: Mycobacterium tuberculosis; test: Antimycobacterial activity against drug-sensitive Mycobacterium tuberculosis H37Rv measured after 7 days by resazurin dye-based assay; assay type: functional; conditions: 168 h
ARPE-19 [2] = test: Cytotoxicity against human ARPE19 cells assessed as effect on cell viability at 10 to 100 uM after 48 hrs in normoxic condition by MTT assay; assay type: cell-based; conditions: arpe-19, 48 h
Enterococcus faecium = test: Antibacterial activity against Enterococcus faecium assessed as bacterial growth inhibition zone diameter at 5 ug after 18 hrs by Kirby-Bauer disk diffusion method; assay type: functional; conditions: read-out: DIZ
Staphylococcus aureus = test: Antibacterial activity against Staphylococcus aureus assessed as bacterial growth inhibition zone diameter at 5 ug after 18 hrs by Kirby-Bauer disk diffusion method; assay type: functional; conditions: read-out: DIZ
Klebsiella pneumoniae = test: Antibacterial activity against Klebsiella pneumoniae assessed as bacterial growth inhibition zone diameter at 5 ug after 18 hrs by Kirby-Bauer disk diffusion method; assay type: functional; conditions: read-out: DIZ
Acinetobacter baumannii = test: Antibacterial activity against Acinetobacter baumannii assessed as bacterial growth inhibition zone diameter at 5 ug after 18 hrs by Kirby-Bauer disk diffusion method; assay type: functional; conditions: read-out: DIZ
Pseudomonas aeruginosa = test: Antibacterial activity against Pseudomonas aeruginosa assessed as bacterial growth inhibition zone diameter at 5 ug after 18 hrs by Kirby-Bauer disk diffusion method; assay type: functional; conditions: read-out: DIZ
Klebsiella aerogenes = test: Antibacterial activity against Enterobacter aerogenes assessed as bacterial growth inhibition zone diameter at 5 ug after 18 hrs by Kirby-Bauer disk diffusion method; assay type: functional; conditions: read-out: DIZ
[3] = Toxicity in po dosed C57BL6 mouse administered via metal gavage measured daily over 14 days; assay type: organism-based; conditions: in vivo
[4] = Toxicity in C57BL6 mouse assessed as mortality at 900 mg/kg, po administered via metal gavage measured daily over 14 days; assay type: organism-based; conditions: in vivo, 336 h
[5] = Toxicity in C57BL6 mouse assessed as mortality at 400 mg/kg, po administered via metal gavage measured daily over 14 days; assay type: organism-based; conditions: in vivo, 336 h
ARPE-19 [6] = test: Cytotoxicity against human ARPE19 cells assessed as effect on cell viability at 100 uM after 48 hrs in normoxic condition by MTT assay; assay type: cell-based; conditions: arpe-19, 48 h

SMILES: O=C(c1ccc([N+](=O)[O-])o1)N1CCC2(CC1)CC(Cc1nc(C3CC3)no1)CCO2 (centres undefined)
- MIC [1]: 3.1 µg/mL (≈ 7.44 µM)
- Activity (ARPE-19 [2]): Non-Toxic

SMILES: CNC(=O)CC1CCOC2(CCN(C(=O)c3ccc([N+](=O)[O-])o3)CC2)C1 (centres undefined)
- MIC [1]: > 100 µg/mL

SMILES: O=C(c1ccc([N+](=O)[O-])o1)N1CCC2(CC1)CC(OCc1ccc(F)cc1)CCO2 (centres undefined)
- MIC [1]: 3.1 µg/mL (≈ 7.41 µM)
- Activity (ARPE-19 [2]): Non-Toxic

SMILES: O=C(c1ccc([N+](=O)[O-])o1)N1CCC2(CC1)CC(NS(=O)(=O)c1ccc(F)c(Cl)c1)CCO2 (centres undefined)
- MIC [1]: 25 µg/mL (≈ 49.8 µM)

SMILES: O=C(c1ccc([N+](=O)[O-])o1)N1CCC2(CCCCO2)CC1
- MIC [1]: 3.1 µg/mL (≈ 10.5 µM)
- Activity (ARPE-19 [2]): Non-Toxic

SMILES: O=C(c1ccc([N+](=O)[O-])o1)N1CCC2(CC1)CC(Cc1ccc(F)cc1)CCO2 (centres undefined)
- MIC [1]: 12.5 µg/mL (≈ 31.1 µM)

SMILES: O=C(O)c1cn(C2CC2)c2cc(N3CCNCC3)c(F)cc2c1=O [CIPROFLOXACIN]
- zone of inhibition at 5 µg/disc (Enterococcus faecium): 23 mm
- zone of inhibition at 5 µg/disc (Staphylococcus aureus): 23 mm
- zone of inhibition at 5 µg/disc (Klebsiella pneumoniae): 25 mm
- zone of inhibition at 5 µg/disc (Acinetobacter baumannii): 30 mm
- zone of inhibition at 5 µg/disc (Pseudomonas aeruginosa): 23 mm
- zone of inhibition at 5 µg/disc (Klebsiella aerogenes): 25 mm

SMILES: O=C(c1ccc([N+](=O)[O-])o1)N1CCC2(CC1)CC(OCC1CC1)CCO2 (centres undefined)
- MIC [1]: 25 µg/mL (≈ 68.6 µM)

SMILES: O=C(c1ccc([N+](=O)[O-])o1)N1CCC2(CC1)CC(Cc1nc(-c3cccnc3)no1)CCO2 (centres undefined)
- MIC [1]: 1.6 µg/mL (≈ 3.53 µM)
- zone of inhibition at 5 µg/disc (Enterococcus faecium): 0 mm
- zone of inhibition at 5 µg/disc (Staphylococcus aureus): 0 mm
- zone of inhibition at 5 µg/disc (Klebsiella pneumoniae): 0 mm
- zone of inhibition at 5 µg/disc (Acinetobacter baumannii): 0 mm
- zone of inhibition at 5 µg/disc (Pseudomonas aeruginosa): 0 mm
- zone of inhibition at 5 µg/disc (Klebsiella aerogenes): 0 mm
- Activity (ARPE-19 [2]): Non-Toxic
- LD50 at 336 h ([3]; C57BL6, mouse): 617 mg/kg
- LD16 ([3]; mouse, 336 h): 198 mg/kg
- LD84 ([3]; mouse, 336 h): 787.5 mg/kg
- LD100 ([3]; mouse, 336 h): 900 mg/kg
- Activity [4]: Toxic
- Activity [5]: Non-Toxic

SMILES: O=C(c1ccc([N+](=O)[O-])o1)N1CCC2(CC1)CC(Oc1ccncc1)CCO2 (centres undefined)
- MIC [1]: 25 µg/mL (≈ 64.5 µM)

SMILES: CCOC1CCOC2(CCN(C(=O)c3ccc([N+](=O)[O-])o3)CC2)C1 (centres undefined)
- MIC [1]: 50 µg/mL (≈ 148 µM)

SMILES: O=C(c1ccc([N+](=O)[O-])o1)N1CCC2(CC1)CC(NS(=O)(=O)c1ccccc1)CCO2 (centres undefined)
- MIC [1]: 50 µg/mL (≈ 111 µM)

SMILES: COc1ccc(CC2CCOC3(CCN(C(=O)c4ccc([N+](=O)[O-])o4)CC3)C2)cc1 (centres undefined)
- MIC [1]: 3.1 µg/mL (≈ 7.48 µM)
- Activity (ARPE-19 [6]): Toxic

SMILES: COc1ccc(S(=O)(=O)NC2CCOC3(CCN(C(=O)c4ccc([N+](=O)[O-])o4)CC3)C2)cc1 (centres undefined)
- MIC [1]: 50 µg/mL (≈ 104 µM)

SMILES: COCCc1noc(CC2CCOC3(CCN(C(=O)c4ccc([N+](=O)[O-])o4)CC3)C2)n1 (centres undefined)
- MIC [1]: 6.2 µg/mL (≈ 14.3 µM)
- Activity (ARPE-19 [2]): Non-Toxic

SMILES: CN(Cc1ccccc1)C(=O)CC1CCOC2(CCN(C(=O)c3ccc([N+](=O)[O-])o3)CC2)C1 (centres undefined)
- MIC [1]: 12.5 µg/mL (≈ 27.4 µM)

SMILES: Cc1cccc(S(=O)(=O)NC2CCOC3(CCN(C(=O)c4ccc([N+](=O)[O-])o4)CC3)C2)c1 (centres undefined)
- MIC [1]: 50 µg/mL (≈ 108 µM)

SMILES: O=C(c1ccc([N+](=O)[O-])o1)N1CCC2(CC1)CC(NS(=O)(=O)c1ccc(F)cc1)CCO2 (centres undefined)
- MIC [1]: 50 µg/mL (≈ 107 µM)

SMILES: Cl.NC1CCOC2(CCN(C(=O)c3ccc([N+](=O)[O-])o3)CC2)C1 (centres undefined)
- MIC [1]: > 100 µg/mL

SMILES: O=C(c1ccc([N+](=O)[O-])o1)N1CCC2(CC1)CC(NS(=O)(=O)c1ccc(Br)cc1)CCO2 (centres undefined)
- MIC [1]: 25 µg/mL (≈ 47.3 µM)

SMILES: CC(C)(C)OC(=O)NC1CCOC2(CCN(C(=O)c3ccc([N+](=O)[O-])o3)CC2)C1 (centres undefined)
- MIC [1]: 25 µg/mL (≈ 61.1 µM)

SMILES: O=C(c1ccc([N+](=O)[O-])o1)N1CCC2(CC1)CC(NS(=O)(=O)c1ccccc1F)CCO2 (centres undefined)
- MIC [1]: 50 µg/mL (≈ 107 µM)

SMILES: O=C(c1ccc([N+](=O)[O-])o1)N1CCC2(CC1)CC(N1CCOCC1)CCO2 (centres undefined)
- MIC [1]: > 100 µg/mL

SMILES: Cc1ccc(CC2CCOC3(CCN(C(=O)c4ccc([N+](=O)[O-])o4)CC3)C2)cc1 (centres undefined)
- MIC [1]: 3.1 µg/mL (≈ 7.78 µM)
- Activity (ARPE-19 [6]): Toxic

SMILES: CS(=O)(=O)NC1CCOC2(CCN(C(=O)c3ccc([N+](=O)[O-])o3)CC2)C1 (centres undefined)
- MIC [1]: > 100 µg/mL
